One block for each compound: values may come before it.
What was measured:
[1] = Inhibition of AAPH induced linoleic acid peroxidation
Description: For the lipid peroxidation study, 2,2′-Azobis(2-methylpropionamidine) dihydrochloride (AAPH) was used as the generator of peroxy radicals and sodium linoleate as the substrate that undergoes peroxidation. The conversion of linoleic acid to 13-hydroperoxy-linoleic acid was recorded at 234 nm. The change of absorbance reflects the possible antioxidant activity of the tested compounds, in comparison with the reference compound, Trolox.
In vitro study was performed as reported previously by our group. AAPH was used as a free radical generator of alkyl peroxyl radicals. For this experimental procedure, 10 μL of the tested compound (from the stock solution), 10 μL sodium linoleate (16 mM), 50 μL AAPH (40 mM) and 930 μL phosphate-buffered solution (pH 7.4) were added in a UV cuvette (1 mL), pre thermostated at 37 °C. The ability of the compounds to prevent the oxidation of linoleic acid from alkyl peroxyl radicals was evaluated by recording the change of absorbance at 234 nm, due to the conversion of linoleic acid to 13-hydroperoxy-linoleic acid. Trolox was used as the reference.

[2] = Reducing activity of the stable radical DPPH
Description: All the synthesized compounds were studied for their ability to interact with the stable free 2,2-diphenyl-1-picrylhydrazyl radical (DPPH) at a concentration of 100 μM after 20 min and 60 min (Table 4). This assay is based on the reduction of DPPH by transferring one electron from the antioxidant.
In vitro study was performed as reported previously by our group. In this experiment, 20 μL of the tested compound (from the stock solution), 980 μL EtOH and 1 mL ethanolic solution of DPPH (100 μM) were added in a testing tube in a final volume of 2 mL. The free radical scavenging ability was evaluated by recording the change of absorbance at 517 nm, produced by the reduction of DPPH, after 20 and 60 min at room temperature.

[3] = MTT cell viability assay, HaCaT; format: cell-based, human; conditions: human, HaCaT cells (epidermal keratinocyte cell line), 100 μΜ
Description: The MTT (3-(4,5-dimethylthiazol-2-yl)-2,5-diphenyltetrazolium bromide) assay is a colorimetric method that is used for the evaluation of cell viability. MTT is converted into colored formazan crystals, indicating the activity of mitochondria and therefore the viability of the cells. Unlike dead cells, the metabolic processes of living cells are functional, meaning that the dehydrogenase enzymes are able to reduce the yellow MTT salt solution to purple crystals, at 37 °C. The intensity of the sample’s color, due to the amount of formazan crystals, is proportional to the number of the living cells in it. Additionally, the colored product is dissolved in various solubilizing agents, such as dimethyl sulfoxide (DMSO). The colored products can be quantitatively measured at 450 nm with a plate reader spectrophotometer. In this study, the human epidermal keratinocyte cell line (HaCaT) was treated with different concentrations (100 μM, 50 μM, 10 μM and 1 μM) of the tested compounds and then the viability rates at each effect were calculated.
(§1) Τhe MTT assay was used to evaluate cell viability or cell toxicity, depending on the cell line being tested. The experimental procedure was performed in a 96-well plate, where the cells were seeded and incubated (37 °C, 5% CO2) for 24 h to grow and cover the surface of the wells. Τhe seeding concentrations for the HaCaT and A549 cells were 30 × 10^4 cells/mL and 20 × 10^4 cells/mL, respectively. After the first incubation, the solutions of the compounds (with different concentrations) were added to the adherent cells and incubated for another 24 h. The compounds were tested in triplicate against the control (only cells in medium), the blank (only medium) and the positive/negative control (cells in 100 μM silibinin solution) triplicates. Silibinin, a flavonoid with known anticancer activities, was used as a negative control for the cell viability assay and as positive control for the cytotoxicity testing assay. The light-sensitive MTT-standard solution was prepared by dissolving 1 mg/mL MTT in PBS and then filtrated (in a […] filter (Millipore, Carrigtwohill, Ireland)). On the third day, an appropriate amount of ΜΤΤ solution was added to each well and the plate was incubated for 4 h. During the incubation time, the formazan crystals were formed, which were then dissolved with 100 μL DMSO per well. Finally, the plate was stirred for 30 min, and the optical density (OD) was measured in a plate reader spectrophotometer at 450 nm.

[4] = test system: A549 cell line; test: MTT cytotoxicity assay, A549; format: cell-based, human; conditions: Homo sapiens; A549, 100 μΜ, 24 h; read-out: % Cell Toxicity 100 μΜ
Description: The compounds of this study were also tested for their cytotoxic effects against the adenocarcinomic human alveolar basal epithelial cell line (A549) at different concentrations (100 μM, 75 μΜ, 50 μM and 10 μM).
as §1

[5] = Experimental determination of lipophilicity as RM values (RP-TLC); format: physicochemical; conditions: methanol/water 70/30 v/v, 24 °C, SD < 10%
From the text: Lipophilicity is an important physicochemical parameter of a drug candidate, linking solubility and membrane permeability with the ADMET (absorption, distribution, metabolism, elimination and toxicity) properties and the overall suitability of a molecule. Reversed-phase thin-layer chromatography was the method used to experimentally determine the lipophilic character of the synthesized compounds as RM values (Table 2). Lipophilicity was also theoretically calculated as clog P values using the Bio-Loom program of BioByte Corp (http://www.biobyte.com/, (accessed on 1 March 2023)). An attempt was made to correlate the experimental RM values with the theoretically calculated clog P values (Table 2). […] This disagreement could be attributed to several factors, e.g., different solvation, silanophilic interactions and hydrogen bonding.
Lipophilicity as RM values was determined through reversed-phase TLC (RP-TLC) on silica gel plates impregnated with 5% v/v liquid paraffin in light petroleum ether. Methanol/water mixture (70/30, v/v) was used as mobile phase. Closed chromatography tanks saturated with the mobile phase at 24 °C were used for the development of the plates while the spots were detected under UV light. For the determination of RM values, five individual measurements of Rf values were recorded, and the RM values were derived from the following Equation (1). (1) RM=log1/Rf−1

[6] = target: T1, soybean lipoxygenase (Glycine max, UniProt P08170); test: Inhibition of soybean lipoxygenase; format: biochemical; conditions: 100 μM; cells of the mixed column without μM; read-out: LOX % Inhibition 100 μM
T1 construct: purchased Sigma Aldrich- Merck KGaA, Darmstadt, Germany
T1 sequence (P08170 1-839): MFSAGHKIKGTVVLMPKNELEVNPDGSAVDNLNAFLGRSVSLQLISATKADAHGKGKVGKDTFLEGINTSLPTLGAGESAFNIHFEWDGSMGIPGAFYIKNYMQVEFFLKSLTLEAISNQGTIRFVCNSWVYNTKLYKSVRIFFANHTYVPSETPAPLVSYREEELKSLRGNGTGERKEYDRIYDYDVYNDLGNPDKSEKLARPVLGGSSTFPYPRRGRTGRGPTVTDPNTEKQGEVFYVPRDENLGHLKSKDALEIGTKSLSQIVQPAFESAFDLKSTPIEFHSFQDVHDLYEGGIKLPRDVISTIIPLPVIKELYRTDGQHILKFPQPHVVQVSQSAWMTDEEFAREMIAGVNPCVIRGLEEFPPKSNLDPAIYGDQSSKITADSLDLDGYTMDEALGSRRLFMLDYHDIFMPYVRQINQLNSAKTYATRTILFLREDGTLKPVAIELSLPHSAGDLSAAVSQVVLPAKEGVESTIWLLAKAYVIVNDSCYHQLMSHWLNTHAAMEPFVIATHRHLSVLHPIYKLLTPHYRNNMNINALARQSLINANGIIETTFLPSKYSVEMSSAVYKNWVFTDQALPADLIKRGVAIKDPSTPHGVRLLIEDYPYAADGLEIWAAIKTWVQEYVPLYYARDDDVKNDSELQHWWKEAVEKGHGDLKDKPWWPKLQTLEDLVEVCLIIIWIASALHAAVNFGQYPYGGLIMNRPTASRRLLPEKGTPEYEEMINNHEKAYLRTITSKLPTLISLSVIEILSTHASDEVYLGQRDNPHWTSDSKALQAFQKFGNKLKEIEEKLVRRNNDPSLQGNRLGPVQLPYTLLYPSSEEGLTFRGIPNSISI
From the text: Lipoxygenase (LOX) is the key enzyme in the biosynthesis of inflammatory mediators; thus, it is considered a target for inflammatory diseases. Soybean LOX is a plant enzyme that has been used widely as a prototype for studying the functional and structural properties of the homologous family of lipoxygenases, presenting satisfactory homology with the human 5-LOX [42]. Linoleic acid is the most common substrate in plant LOX. […] Lipophilicity is considered one of the most important parameters with regard to LOX inhibitors according to the literature.
In vitro study was performed as reported previously by our group. In this experiment, 10 μL of the tested compound (from the stock solution) were incubated with 100 μL sodium linoleate (diluted in Tris buffer), 200 μL LOX solution (1:9 × 10^−4 w/v in saline) and 690 μL Tris buffer (pH 9.0) at room temperature. The absorbance was measured at 234 nm, where the change of absorbance was recorded due to the formation of 13-hydroperoxy-linoleic acid. […] In order to determine the IC50 values, different concentrations were used.

SMILES: Cc1c(C)c2c(c(C)c1O)CCC(C)(C(=O)O)O2 (centres unmarked) [Trolox, 6-Hydroxy-2,5,7,8-tetramethyl-chroman2-carboxylic acid, reference compound]
AAPH % Inhibition 100 μM [1]: - 92%

SMILES: CC(Cc1ccc(O)c(O)c1)C(C)Cc1ccc(O)c(O)c1 (centres unmarked) [NDGA, Nordihydroguaretic acid, reference compound]
RA % 100 μM 20 min ([2]; 20 min): 87 - %
RA % 100 μM 60 min ([2]; 60 min): 93 - %

SMILES: COc1cc(C2Oc3cc([C@H]4Oc5cc(O)cc(O)c5C(=O)[C@@H]4O)ccc3OC2CO)ccc1O (some centres unmarked) [Silibinin, reference compound]
viability at 24 h, 100 μM [3]: 14.9%
cytotoxicity at 100 µM [4]: 96.4%

RM [5]: −0.52
inhibition at 100 µM [6]: 6%
melting point: 58 to 60 °C
SMILES: O=C(/C=C/c1cccs1)c1ccccc1 [Compound 1c, (E)-1-phenyl-3-(thiophen-2-yl)prop-2-en-1-one]

Reference: PMC10180197, “Novel Pyrimidine Derivatives as Antioxidant and Anticancer Agents: Design, Synthesis and Molecular Modeling Studies” (Molecules, 2023)
